Tested on: LC3-II production in Hep3B cells
Experiment: Autophagy activation: degree of LC3-II production in Hep3B cells (Western blot band density)
Format: cell-based, human
Conditions: 12 hours; for Autophagy-inducing capacity: amount of LC3-II increased by compound treatment relative to that of the Comparative Example (=1)
Procedure: The degree of autophagy activation of each compound was evaluated by measuring the degree of LC3-II production in Hep3B cells.
Specifically, Hep3B human hepatocytes were cultured in DMEM medium at 37° C. under 5% CO2 atmosphere. The respective cells were dispensed into 6-well plates at a density of 5×10^5 cells/well. These cells were treated with DMSO, the compound prepared in Examples described above, and the compound of Comparative Example, respectively, and then treated in DMEM medium at 37° C. under 5% CO2 atmosphere for 12 hours to induce autophagy. Subsequently, Hep3B cells were lysed with an extraction buffer containing protease inhibitor cocktail (PBS solution containing 0.5% Triton X-100, 1 mM Na3VO4, etc.), and then fragmentation of DNA was performed by sonication. The amount of protein was measured with bovine serum albumin as a protein standard using SMART™ BCA Protein Assay kit from iNtRON Biotechnology. After electrophoresis of 10˜50 μg of total cell protein in 8˜12% (w/v) polyacrylamide gel containing 0.1% SDS, the proteins present in a gel were transferred to PVDF membrane by an electroblotting technique. Then, in order to block non-specific binding, the PVDF membrane was placed in a TBS-tween (tris-buffered saline-tween, Sigma Co.) solution containing 5% non-fat dry milk and reacted at room temperature for 1 hour. The filter was placed in a TBS-tween solution containing a specific antibody against LC3 protein (Cell Signaling), allowed to stand at 4° C. for 12 hours, and then labeled with a secondary antibody labeled with HRP (Horseradish Peroxidase, Sigma Co., Cat No. P0889). Then, bands were measured using ECL (Enhanced Chemiluminescence, Thermo Scientific, Cat No. 34080).
The induction of autophagy can be confirmed by an increase in specific LC3-II molecules. LC3 precursors are usually scattered in the cytoplasm, proteolytically cleaved, and present in the form of LC3-I. When autophagy is activated, the C-terminal glycine is modified to form LC3-II, which migrates to autophagosome and is distributed in puncta form.
The amount of LC3-II increased by the compound treatment was quantified by measuring the band density, and then compared with the amount of LC3-II increased by the treatment of the compound of Comparative Example, and the comparison values are shown in Table 1.

Row | Structure (SMILES) | increase in LC3-II (induction of autophagy), in words | Autophagy-inducing capacity
1 | COc1ccc(-c2ccc(C(=O)NC(C)C)s2)cc1OC [Comparative Example, 5-(3,4-dimethoxyphenyl)-N-isopropylthiophene-2-carboxamide, reference compound] | Hep3B cells induce autophagy | 1.00
2 | COc1cc(-c2ccc(C(=O)NC(C)C)s2)ccc1O [Example 1, 5-(4-hydroxy-3-methoxyphenyl)-N-isopropylthiophene-2-carboxamide] | – | 1.48
3 | COc1ccc(-c2ccc(C(=O)NC(C)C)s2)cc1O [Example 2, 5-(3-hydroxy-4-methoxyphenyl)-N-isopropylthiophene-2-carboxamide] | – | 1.38
4 | CC(C)NC(=O)c1ccc(-c2cccc(O)c2)s1 [Example 4, 5-(3-hydroxyphenyl)-N-isopropylthiophene-2-carboxamide] | – | 1.16
5 | CC(C)NC(=O)c1ccc(-c2ccc(O)cc2)s1 [Example 5, 5-(4-hydroxyphenyl)-N-isopropylthiophene-2-carboxamide] | – | 1.80
6 | CC(C)NC(=O)c1ccc(-c2cccnc2)s1 [Example 7, N-isopropyl-5-(pyridin-3-yl)thiophene-2-carboxamide] | – | 1.24
7 | CC(C)NC(=O)c1ccc(-c2ccc3[nH]ccc3c2)s1 [Example 11, 5-(1H-indol-5-yl)-N-isopropylthiophene-2-carboxamide] | – | 2.13
8 | COc1ccc(-c2ccc(C(=O)NC(C)C)s2)c(OC)n1 [Example 12, 5-(2,6-dimethoxypyridin-3-yl)-N-isopropylthiophene-2-carboxamide] | – | 1.19
9 | COc1cc(-c2ccc(C(=O)NC(C)C)s2)cnc1N [Example 14, 5-(6-amino-5-methoxypyridin-3-yl)-N-isopropylthiophene-2-carboxamide] | – | 1.13
10 | CC(C)NC(=O)c1ccc(-c2cncc3ccccc23)s1 [Example 15, N-isopropyl-5-(isoquinolin-4-yl)thiophene-2-carboxamide] | – | 1.50
11 | CC(C)NC(=O)c1ccc(-c2cnc3ccccc3c2)s1 [Example 17, N-isopropyl-5-(quinolin-3-yl)thiophene-2-carboxamide] | – | 1.99
12 | CC(C)NC(=O)c1ccc(-c2cccc(N)c2)s1 [Example 18, 5-(3-aminophenyl)-N-isopropylthiophene-2-carboxamide] | – | 1.13
13 | CC(C)NC(=O)c1ccc(-c2ccc(F)c(F)c2)s1 [Example 27, 5-(3,4-difluorophenyl)-N-isopropylthiophene-2-carboxamide] | – | 1.01
14 | Cc1cc(C)cc(-c2ccc(C(=O)NC(C)C)s2)c1 [Example 28, 5-(3,5-dimethylphenyl)-N-isopropylthiophene-2-carboxamide] | – | 1.60
15 | Cc1cccc(-c2ccc(C(=O)NC(C)C)s2)c1 [Example 30, N-isopropyl-5-m-tolylthiophene-2-carboxamide] | – | 1.02
16 | Cc1ccc(-c2ccc(C(=O)NC(C)C)s2)c(C)c1 [Example 31, 5-(2,4-dimethylphenyl)-N-isopropylthiophene-2-carboxamide] | – | 1.49
17 | Cc1cc(C)cc(-c2ccc(C(=O)Nc3ccccc3)s2)c1 [Example 48, 5-(3,5-dimethylphenyl)-N-phenylthiophene-2-carboxamide] | – | 1.46
18 | O=C(Nc1ccccc1)c1ccc(-c2cccnc2)s1 [Example 49, N-phenyl-5-(pyridin-3-yl)thiophene-2-carboxamide] | – | 1.51
19 | O=C(Nc1cccnc1)c1ccc(-c2cccnc2)o1 [Example 58, N,5-di(pyridin-3-yl)furan-2-carboxamide] | – | 1.10
20 | CC(C)NC(=O)c1ccc(-c2cncc3ccccc23)o1 [Example 65, N-isopropyl-5-(isoquinolin-4-yl)furan-2-carboxamide] | – | 1.66
21 | CC(C)OC(=O)c1ccc(-c2cccnc2)s1 [Example 72, isopropyl 5-(pyridin-3-yl)thiophene-2-carboxylate] | – | 1.08
22 | Cc1cc(C)cc(-c2ccc(C(=O)NC(C)C)o2)c1 [Example 85, 5-(3,5-dimethylphenyl)-N-isopropylfuran-2-carboxamide] | – | 1.09
23 | CCOC(=O)c1ccc(-c2cnc3ccccc3c2)o1 [Example 88, ethyl 5-(quinolin-3-yl)furan-2-carboxylate] | – | 1.02
24 | CCOC(=O)c1ccc(-c2ccc(C#N)cc2)o1 [Example 89, ethyl 5-(4-cyanophenyl)furan-2-carboxylate] | – | 1.64
25 | O=C(Nc1cccnc1)c1ccc(-c2cccc(O)c2)o1 [Example 91, 5-(3-hydroxyphenyl)-N-(pyridin-3-yl)furan-2-carboxamide] | – | 1.33
26 | CCNC(=O)c1cccc(-c2ccc(C(=O)NC(C)C)o2)c1 [Example 92, 5-(3-(ethylcarbamoyl)phenyl)-N-isopropylfuran-2-carboxamide] | – | 1.41
27 | CCNC(=O)c1ccc(-c2ccc(C(=O)NC(C)C)o2)cc1 [Example 93, 5-(4-(ethylcarbamoyl)phenyl)-N-isopropylfuran-2-carboxamide] | – | 1.19
28 | CC(C)NC(=O)c1ccc(-c2ccc(C(=O)NC(C)C)o2)cc1 [Example 94, N-isopropyl-5-(4-(isopropylcarbamoyl)phenyl)furan-2-carboxamide] | – | 1.17
